Assays:
Assay type in all cases: physicochemical
[1] = Water uptake into concentrate container without gas barrier, Example 6; settings: 40° C., 75% relative humidity; for water uptake into the concentrate container (water content in percent by weight): after about 26 weeks; for water uptake: period of 6 months
Protocol: The water uptake into a concentrate container without a gas barrier, comprising MgCl2×6H2O or alkaline magnesium carbonate, 4MgCO3×Mg(OH)2×5H2O respectively, was compared. The concentrate containers were each exposed in the climate chamber to 40° C. and 75% relative humidity for several weeks. […] The time in weeks is plotted on the abscissa. The water content in percent by weight is plotted on the ordinate.

[2] = Storage of MgCl2×6H2O in gas-permeable concentrate container in climate chamber, Example 5; settings: 40° C., 75% relative humidity, 6 months
Protocol: MgCl2×6H2O was stored in the climate chamber at 40° C. and 75% relative humidity in a gas-permeable concentrate container.

[3] = Caking behaviour of concentrates in containers stored in climate chamber, Examples 2-4; settings: Example 4; 40° C., 75% relative humidity, 6 months
Description: The container comprised of film material without appreciable gas-barrier properties is depicted on the left of FIG. 1. […] The container shown on the right of FIG. 1 comprised the same materials. Additionally, said film comprised a gas-barrier layer of silicon oxide. The gas permeability of said film was below 20 cm^3/(m^2·d·bar) for CO2, as measured in accordance with DIN 53380—part 4. […] 1.
The stability of a concentrate comprised of components according to the invention versus conventional components was tested. […] It was assumed that the crystal water of the glucose in conjunction with sodium chloride caused caking.

water uptake into the concentrate container (water content in percent by weight) [1] | water uptake [1] | physical state after storage [2] | caking [3] | Compound
~24% | significant water uptake | liquefied | – | O.O.O.O.O.O.[Cl-].[Cl-].[Mg+2] [MgCl2×6H2O, magnesium chloride with crystal water, MgCl2×6H2O]
– | – | – | does not promote caking | OC[C@H]1OC(O)[C@H](O)[C@@H](O)[C@@H]1O (stereo partly drawn) [anhydrous glucose]
no water uptake | did not absorb any water | – | – | alkaline magnesium carbonate, 4MgCO3×Mg(OH)2×5H2O

From patent US9249345B2, “Concentrate for medical solutions, production thereof and use thereof in dialysis” (FRESENIUS MEDICAL CARE DEUTSCHLAND GMBH, priority 2010, dated 2016)
